Results reported in US5053226A, “Monoclonal antibodies binding platinum complexes” (Board of Regents, The University of Texas System, priority 1987, dated 1991).

What was measured:
[1] = biological target: monoclonal antibody from hybridoma 1C1 H2 A5; assay: Competitive ELISA of platinum compounds for binding to 1C1 H2 A5 monoclonal antibody; parameters: species or system mouse; details: for concentration of agent which decreased the antibody binding to 50% of control: MOAB 1C1 H2 A5, immobilized DACH Pt complex in microtiter wells
Procedure: A DACH Pt complex was immobilized on the surface of microtiter wells.
A DACH Pt complex was immobilized on the surface of microtiter wells, to which MOAB binding was measured.
A competitive ELISA assay using monoclonal antibody specific for platinum (II) complex was performed. Monoclonal antibody from hybridoma 1C1 H2 A5 was added to microtiter wells having an immobilized DACH Pt complex. The MOAB was added either with no free platinum complex (control) or with increasing amounts of free MIDP platinum complex. Additionally, three compounds (designated A, B and C), whose identities were best unknown at that time, were added in parallel to the MIDP competition study. As shown in FIG. 10 the competition of compound A was quite similar to that of MIDP. Compound B (FIG. 11) was less similar to MIDP and compound C (FIG. 12) was least like MIDP although still being inhibitory of MOAB binding. The concentration of each agent which decreased the antibody binding to 50% of control was: MIDP=lug; A=2ug; B=4ug and C=200ug.

[2] = tested on: cells resistant to cisplatin; details: cited from earlier work
L1210 leukemia = details: mice, multi-dose administration; cited from earlier work
[3] = tested on: human breast carcinoma cells (MCF-7); assay: MTT assay; cytotoxicity on MCF-7 breast carcinoma cells; format: cell-based; details: MCF-7, 72 hrs
Procedure: Eight thousand MCF-7 cells were seeded per well and an MTT dye viability test performed.
In order to determine whether the MIDP/MOAB complex retained antiproliferative activity against cells in culture, the antibody (2 mg) was incubated with 200 ug of MIDP platinum complex for 24 hrs. The MOAB/MIDP solution was then dialyzed for 4 hrs at 4° C. against phosphate-buffered saline (PBS). The dialysate was then analyzed for total platinum by atomic absorption spectrometry. The monoclonal antibody/MIDP complex was then added to human breast carcinoma cells (MCF-7) in concentrations between 0.01 and 10 ug Pt/ml. As a control on the same plates, MIDP was also added at equal platinum concentrations. At 72 hrs after treatment, the wells were assessed for viable cells by MTT assay.
**Cell survival was determined using the tetrazolium dyebinding method
(MTT) which dye reacts only with living cells.

[4] = in vivo; cited from earlier work
B16 melanoma = details: mice, multi-dose administration; cited from earlier work

amount needed to compete at a level with MIDP ([1]; relative to MIDP) | Compound | concentration of agent which decreased the antibody binding to 50% of control [1] [µg] | cross-resistance [2] | treatment of L1210 leukemia (L1210 leukemia) | Percent of Control Cell survival ([3]; MIDP concentration 0.019 ug/ml) [%] | Percent of Control Cell survival ([3]; MIDP concentration 0.039 ug/ml) [%] | Percent of Control Cell survival ([3]; MIDP concentration 0.078 ug/ml) [%] | Percent of Control Cell survival ([3]; MIDP concentration 0.156 ug/ml) [%] | Percent of Control Cell survival ([3]; MIDP concentration 0.312 ug/ml) [%] | Percent of Control Cell survival ([3]; MIDP concentration 0.625 ug/ml) [%] | Percent of Control Cell survival ([3]; MIDP concentration 1.25 ug/ml) [%] | Percent of Control Cell survival ([3]; MIDP concentration 2.5 ug/ml) [%] | Percent of Control Cell survival ([3]; MIDP concentration 5 ug/ml) [%] | Percent of Control Cell survival ([3]; MIDP concentration 10 ug/ml) [%] | concentration required for 50% inhibition of cell growth ([3]; MTT, platinum concentration) [µg/mL] | renal toxicity [4] | treatment of B16 melanoma (B16 melanoma) | binding to the antibody relative to compound C ([1]; relative to compound C)
 | CN(CC(=O)[O-])CC(=O)[O-].NC1CCCCC1N.[Pt+2] [MIDP, methylimino-diacetato-1,2-diaminocyclohexane platinum (II)] | 2 | not to display cross-resistance | curative | 86.9 | 84.3 | 72.4 | 45.5 | 32.3 | 17.0 | 18.5 | 15.2 | 10.8 | 8.3 | 0.15 | does not induce renal toxicity | curative | 
100-200 times | N.N.O=C([O-])C1(C(=O)[O-])CCC1.[Pt+2] [Compound C, diamine Pt(II) 1,1-dicarboxylatocyclobutane] | 200 |  |  |  |  |  |  |  |  |  |  |  |  |  |  |  | 
 | NC1CCCCC1N.O=C([O-])C1(C(=O)[O-])CCC1.[Pt+2] [Compound B, DACH Pt(II) 1,1-dicarboxylatocyclobutane] | 4 |  |  |  |  |  |  |  |  |  |  |  |  |  |  |  | about 50 fold
